Patent US9085550B2, “Ligands for estrogen related receptors and methods for synthesis of said ligands” (CITY OF HOPE, priority 2005, dated 2015)

Key:
Type in all cases: cell-based
[1] = biological target: T1, GAL-L-hERRb (human ERRβ ligand binding domain fused to GAL4 DNA binding domain) (Homo sapiens, UniProt O95718); test: GAL4 reporter transactivation assay in CV-1 cells, GAL-L-hERRb; conditions: for Fold activation, GAL-L-hERRb + PGC-1a / Fold activation, GAL-L-hERRb: CV-1; for Fold activation, GAL-L-hERRb + PGC-1a: reporter 0.42:vector 0.00875:PGC-1a 0.035; for Fold activation, GAL-L-hERRb: reporter 0.42:vector 0.00875, no PGC-1a
T1 construct: expressed in transfected cells; host or cells: CV-1
T1 sequence (O95718 208-432 limits assumed): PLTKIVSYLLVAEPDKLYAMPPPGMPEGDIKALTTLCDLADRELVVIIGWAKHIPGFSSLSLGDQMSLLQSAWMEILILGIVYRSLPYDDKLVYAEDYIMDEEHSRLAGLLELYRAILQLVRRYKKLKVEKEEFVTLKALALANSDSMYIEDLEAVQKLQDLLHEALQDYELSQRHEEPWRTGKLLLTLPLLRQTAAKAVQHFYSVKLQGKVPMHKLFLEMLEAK

[2] = biological target: T2, GAL-mERRg (mouse ERRγ ligand binding domain fused to GAL4 DNA binding domain) (Mus musculus, UniProt P62509); test: GAL4 reporter transactivation assay in CV-1 cells, GAL-mERRg; conditions: for Fold activation, GAL-mERRg + PGC-1a / Fold activation, GAL-mERRg: CV-1; for Fold activation, GAL-mERRg + PGC-1a: reporter 0.42:vector 0.00875:PGC-1a 0.035; for Fold activation, GAL-mERRg: reporter 0.42:vector 0.00875, no PGC-1a
T2 construct: expressed in transfected cells; host or cells: CV-1
T2 sequence (P62509 233-457 limits assumed): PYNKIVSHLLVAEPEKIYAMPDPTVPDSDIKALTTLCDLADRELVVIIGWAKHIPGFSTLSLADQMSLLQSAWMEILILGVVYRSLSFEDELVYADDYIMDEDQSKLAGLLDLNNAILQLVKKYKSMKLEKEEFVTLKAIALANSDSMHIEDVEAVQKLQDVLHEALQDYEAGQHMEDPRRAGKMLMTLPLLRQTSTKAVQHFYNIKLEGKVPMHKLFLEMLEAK

human ERβ = biological target: T3, human ERβ (Homo sapiens, UniProt Q92731); test: ERE-TK-luc reporter transactivation assay in CV-1 cells, full-length hERb
T3 construct: Human ERα and ERβ were examined as full-length proteins using an estrogen receptor responsive reporter construct; expressed in transfected cells; host or cells: CV-1
Procedure: (§1) Human ERα and ERβ were examined as full-length proteins using an estrogen receptor responsive reporter construct.
(§2) Suitable reporter gene constructs are well known to skilled workers in the fields of biochemistry and molecular biology. […] Other vectors known in the art can be used in the methods of the present invention.
(§3) CV-1 cells for the activation assays were grown in Dulbecco's modified Eagle's medium supplemented with 10% resin charcoal-stripped fetal bovine serum, 50 U/ml penicillin G and 50 μg/ml streptomycin sulfate (DMEM-FBS) at 37° C. in 5% CO2. One day prior to transfection, cells were plated to 50-80% confluence using phenol red free DMEM-FBS.

human ERα = biological target: T4, human ERα (Homo sapiens, UniProt P03372); test: ERE-TK-luc reporter transactivation assay in CV-1 cells, full-length hERa
T4 construct: Human ERα and ERβ were examined as full-length proteins using an estrogen receptor responsive reporter construct; expressed in transfected cells; host or cells: CV-1
T4 sequence (P03372 1-595): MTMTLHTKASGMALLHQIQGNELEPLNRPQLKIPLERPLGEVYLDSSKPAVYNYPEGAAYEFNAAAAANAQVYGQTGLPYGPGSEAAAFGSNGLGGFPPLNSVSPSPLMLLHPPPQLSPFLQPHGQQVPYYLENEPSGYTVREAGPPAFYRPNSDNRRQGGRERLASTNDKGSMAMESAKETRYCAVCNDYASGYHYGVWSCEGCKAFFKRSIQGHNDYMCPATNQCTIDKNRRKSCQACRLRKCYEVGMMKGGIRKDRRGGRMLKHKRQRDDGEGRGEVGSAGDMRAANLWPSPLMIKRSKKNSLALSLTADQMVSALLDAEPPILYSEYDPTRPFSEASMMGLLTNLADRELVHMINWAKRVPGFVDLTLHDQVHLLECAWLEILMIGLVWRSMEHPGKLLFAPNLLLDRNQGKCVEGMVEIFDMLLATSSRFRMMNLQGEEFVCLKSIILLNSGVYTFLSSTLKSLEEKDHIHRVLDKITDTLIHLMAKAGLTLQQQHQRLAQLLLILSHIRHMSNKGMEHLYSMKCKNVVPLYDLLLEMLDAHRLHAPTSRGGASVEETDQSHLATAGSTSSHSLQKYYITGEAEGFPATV
Procedure: as §1, §2, §3

[3] = biological target: T5, GAL-hERRa (human ERRα ligand binding domain fused to GAL4 DNA binding domain) (Homo sapiens, UniProt P11474); test: GAL4 reporter transactivation assay in CV-1 cells, GAL-hERRa; conditions: for Fold activation, GAL-hERRa + PGC-1a / Fold activation, GAL-hERRa: CV-1; for Fold activation, GAL-hERRa + PGC-1a: reporter 0.42:vector 0.00875:PGC-1a 0.035; for Fold activation, GAL-hERRa: reporter 0.42:vector 0.00875, no PGC-1a
T5 construct: expressed in transfected cells; host or cells: CV-1
T5 sequence (P11474 193-421 limits assumed): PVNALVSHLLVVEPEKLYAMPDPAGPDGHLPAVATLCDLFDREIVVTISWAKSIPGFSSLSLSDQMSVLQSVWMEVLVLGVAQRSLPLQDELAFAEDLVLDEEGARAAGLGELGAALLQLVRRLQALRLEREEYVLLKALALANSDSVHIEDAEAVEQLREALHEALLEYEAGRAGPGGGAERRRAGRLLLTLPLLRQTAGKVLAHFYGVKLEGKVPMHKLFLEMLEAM

T3 sequence (Q92731 whole entry): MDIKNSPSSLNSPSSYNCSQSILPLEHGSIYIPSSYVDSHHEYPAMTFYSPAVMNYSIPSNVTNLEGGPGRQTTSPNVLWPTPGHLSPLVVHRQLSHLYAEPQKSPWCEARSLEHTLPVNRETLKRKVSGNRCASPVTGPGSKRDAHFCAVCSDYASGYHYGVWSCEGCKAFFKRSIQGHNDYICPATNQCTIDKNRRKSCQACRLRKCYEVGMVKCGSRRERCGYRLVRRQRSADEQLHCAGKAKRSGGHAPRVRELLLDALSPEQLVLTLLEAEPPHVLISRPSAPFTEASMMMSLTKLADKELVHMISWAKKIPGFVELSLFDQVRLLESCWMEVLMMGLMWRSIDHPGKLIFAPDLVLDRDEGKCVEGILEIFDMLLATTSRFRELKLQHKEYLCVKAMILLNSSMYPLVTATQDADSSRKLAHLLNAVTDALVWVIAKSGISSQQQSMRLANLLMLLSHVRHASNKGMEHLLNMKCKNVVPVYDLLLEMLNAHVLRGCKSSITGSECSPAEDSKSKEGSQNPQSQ

Compound: Cc1cccc(C=NNC(=O)c2ccc(O)cc2)c1 [DY159, 4-Hydroxy-benzoic acid (3-methyl-benzylidene)-hydrazide]
- Fold activation, GAL-L-hERRb + PGC-1a ([1]; 1 μM): 1.38 fold
- Fold activation, GAL-L-hERRb + PGC-1a ([1]; 3 μM (first 3 μM column)): 1.79 fold
- Fold activation, GAL-L-hERRb + PGC-1a ([1]; 3 μM (second 3 μM column)): 1.47 fold
- Fold activation, GAL-L-hERRb + PGC-1a ([1]; 10 μM): 1.89 fold
- Fold activation, GAL-L-hERRb + PGC-1a ([1]; 30 μM): 2.45 fold
- Fold activation, GAL-L-hERRb ([1]; 1 μM): 1.29 fold
- Fold activation, GAL-L-hERRb ([1]; 3 μM (first 3 μM column)): 1.25 fold
- Fold activation, GAL-L-hERRb ([1]; 3 μM (second 3 μM column)): 0.98 fold
- Fold activation, GAL-L-hERRb ([1]; 10 μM): 1.33 fold
- Fold activation, GAL-L-hERRb ([1]; 30 μM): 1.36 fold
- Activation of ERRβ ([1]; in the presence of PGC-1a): can activate
- Fold activation, GAL-mERRg + PGC-1a ([2]; 1 μM): 1.16 fold
- Fold activation, GAL-mERRg + PGC-1a ([2]; 3 μM (first 3 μM column)): 1.45 fold
- Fold activation, GAL-mERRg + PGC-1a ([2]; 3 μM (second 3 μM column)): 1.80 fold
- Fold activation, GAL-mERRg + PGC-1a ([2]; 10 μM): 2.70 fold
- Fold activation, GAL-mERRg + PGC-1a ([2]; 30 μM): 2.56 fold
- Fold activation, GAL-mERRg ([2]; 1 μM): 1.39 fold
- Fold activation, GAL-mERRg ([2]; 3 μM (first 3 μM column)): 1.28 fold
- Fold activation, GAL-mERRg ([2]; 3 μM (second 3 μM column)): 1.22 fold
- Fold activation, GAL-mERRg ([2]; 10 μM): 1.36 fold
- Fold activation, GAL-mERRg ([2]; 30 μM): 1.01 fold
- Activation of ERRγ ([2]; in the presence of PGC-1a): can activate
- Fold Activation, ERE-TK-luc, hERb (human ERβ; Table 7, CV-1, drug conc 30 μM): 1.93 fold
- Activation of ERb (human ERβ; specificity for ERRs): do not activate
- Fold Activation, ERE-TK-luc, hERa (human ERα; Table 7, CV-1, drug conc 30 μM): 1.59 fold
- Activation of ERa (human ERα; specificity for ERRs): do not activate
- Fold activation, GAL-hERRa + PGC-1a ([3]; 1 μM): 1.18 fold
- Fold activation, GAL-hERRa + PGC-1a ([3]; 3 μM (first 3 μM column)): 1.69 fold
- Fold activation, GAL-hERRa + PGC-1a ([3]; 3 μM (second 3 μM column)): 1.55 fold
- Fold activation, GAL-hERRa + PGC-1a ([3]; 10 μM): 2.02 fold
- Fold activation, GAL-hERRa + PGC-1a ([3]; 30 μM): 2.61 fold
- Fold activation, GAL-hERRa ([3]; 1 μM): 1.03 fold
- Fold activation, GAL-hERRa ([3]; 3 μM (first 3 μM column)): 1.41 fold
- Fold activation, GAL-hERRa ([3]; 3 μM (second 3 μM column)): 1.23 fold
- Fold activation, GAL-hERRa ([3]; 10 μM): 1.64 fold
- Fold activation, GAL-hERRa ([3]; 30 μM): 2.41 fold
- Activation of ERRα ([3]; in the presence of PGC-1a): can activate
